Experimental findings from patent publication US8067424B2, “Selective inhibitors for cyclin-dependent kinases” (Emory University, priority 2007, dated 2011) are described below.

Common to all, as to type: biochemical
Assay [1] deals with T1, BRSK2 (Homo sapiens, UniProt Q8IWQ3).
T1 sequence (Q8IWQ3 1-736): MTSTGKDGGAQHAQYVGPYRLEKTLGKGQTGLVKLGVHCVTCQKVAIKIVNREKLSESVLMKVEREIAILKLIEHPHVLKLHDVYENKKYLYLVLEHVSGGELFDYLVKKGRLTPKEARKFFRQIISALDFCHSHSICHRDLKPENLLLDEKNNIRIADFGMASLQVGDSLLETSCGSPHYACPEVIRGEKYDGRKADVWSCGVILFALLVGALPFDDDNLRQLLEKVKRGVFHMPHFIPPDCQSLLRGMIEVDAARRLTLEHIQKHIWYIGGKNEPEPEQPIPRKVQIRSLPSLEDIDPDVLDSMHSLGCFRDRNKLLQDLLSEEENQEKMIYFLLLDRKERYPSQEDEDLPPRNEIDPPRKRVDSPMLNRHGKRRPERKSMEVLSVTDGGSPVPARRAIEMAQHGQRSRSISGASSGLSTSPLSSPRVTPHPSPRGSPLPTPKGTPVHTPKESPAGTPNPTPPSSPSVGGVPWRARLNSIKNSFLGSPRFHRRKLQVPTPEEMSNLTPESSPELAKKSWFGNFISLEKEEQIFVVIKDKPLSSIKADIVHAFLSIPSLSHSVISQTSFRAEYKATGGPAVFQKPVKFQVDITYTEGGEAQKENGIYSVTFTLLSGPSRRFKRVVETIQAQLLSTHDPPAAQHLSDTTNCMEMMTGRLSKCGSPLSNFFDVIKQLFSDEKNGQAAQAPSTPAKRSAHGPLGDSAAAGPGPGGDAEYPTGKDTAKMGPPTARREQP
Description: Kinase screen: BRSK2 assay. The procedure: (§1) Generally, the same procedure was used for all assays. Since the total assay volume was 25.5 microliters, 0.5 microliters of inhibitors at 51× assay concentration were added to the plates before any other addition.
(§2) The basic procedure was to add 0.5 microliters inhibitor/control in DMSO to plate. Fifteen microliters of enzyme/substrate/buffer mix were added and incubated for 5 min. Ten microliters MgATP at the relevant concentration were added and incubated for 30 min. The assay was stopped by adding 5 microliters of 3% orthophosphoric acid. The assay was transferred to a p81 filter plate and read in a scintillation counter of 30 sec/well. Note that this assay procedure was not followed for MKK1, which instead involved a two-step assay, and PKC alpha, which required the addition of lipid vesicles.
BRSK2 assay: BRSK2 (5-20 mU diluted in 50 mM Tris pH 7.5, 0.1 mM EGTA, 0.1% b-mercaptoethanol, 1 mg/ml BSA) was assayed against a substrate peptide ([…]) (SEQ ID NO: 33) in a final volume of 25.5 μl containing 50 mM Tris pH 7.5, 0.05% b-mercaptoethanol, 300 μM substrate peptide, 10 mM magnesium acetate and 0.05 mM [33P-g-ATP] (50-1000 cpm/pmole) and incubated for 30 min at room temperature. Assays were stopped by addition of 5 μl of 0.5 M (3%) orthophosphoric acid and then harvested onto P81 Unifilter plates with a wash buffer of 50 mM orthophosphoric acid.

The target in assay [2] is CDK2-Cyclin A (Homo sapiens, UniProt P24941). Description: Kinase screen: CDK2/cyclin A assay. The procedure:
Generally, the same procedure was used for all assays.
as §2
CDK2/cyclin A assay: CDK2/cyclin A (5-20 mU diluted in 50 mM Hepes pH 7.5, 1 mM DTT, 0.02% Brij35, 100 mM NaCl) was assayed against Histone H1 in a final volume of 25.5 μl containing 50 mM Hepes pH7.5, 1 mM DTT, 0.02% Brij35, 100 mM NaCl, Histone H1 (1 mg/ml), 10 mM magnesium acetate and 0.02 mM [33P-g-ATP] (500-1000 cpm/pmole) and incubated for 30 min at room temperature. Assays were stopped by addition of 5 μl of 0.5 M (3%) orthophosphoric acid and then harvested onto P81 Unifilter plates with a wash buffer of 50 mM orthophosphoric acid.

Assay [3] addresses PIM3 (Homo sapiens, UniProt Q86V86). Description: Kinase screen: PIM3 assay. The procedure: as §1, §2
PIM3 assay: PIM3 (5-20 mU diluted in 50 mM Tris pH 7.5, 0.1 mM EGTA, 0.1% b-mercaptoethanol, 1 mg/ml BSA) was assayed against a substrate peptide ([…]) (SEQ ID NO: 23) in a final volume of 25.5 μl containing 50 mM Tris pH 7.5, 0.05% b-mercaptoethanol, 300 μM substrate peptide, 10 mM magnesium acetate and 0.02 mM [33P-g-ATP] (50-1000 cpm/pmole) and incubated for 30 min at room temperature. Assays were stopped by addition of 5 μl of 0.5 M (3%) orthophosphoric acid and then harvested onto P81 Unifilter plates with a wash buffer of 50 mM orthophosphoric acid.

Assay [4] addresses SRPK1 (Homo sapiens, UniProt Q96SB4). The experiment in a line: Kinase screen: SRPK1 assay. The procedure: as §1, §2
SRPK1 assay: 5-20 mU of SRPK1 (diluted in 50 mM Tris (pH 7.5), 0.1 mM EGTA, 1 mg/ml BSA, 0.1%, b-Mercaptoethanol) was assayed against substrate peptide ([…]) (SEQ ID NO: 25) in a final volume of 25.5 μl containing 50 mM Tris (pH 7.5), 0.1 mM EGTA, 0.1%, b-Mercaptoethanol, 300 μM substrate peptide, 10 mM magnesium acetate and 0.05 mM [33P-g-ATP] (500-1000 cpm/pmole) and incubated for 30 mins at room temperature. Assays were stopped by addition of 5 μl of 0.5M (3%) orthophosphoric acid. Assays were harvested onto P81 Unifilter plates using a wash buffer of 50 mM orthophosphoric acid.

Assay [5] relates to PHK. Description: Kinase screen: PBK assay (phosphorylase b peptide). As to conditions: for mean activity remaining (as a percentage of the original activity), PHK: 10 micromolar compound. The procedure:
as §1, §2
PBK assay: PBK (5-20 mU diluted in 50 mM Na-b-glycerophosphate pH 7.0, 0.1% b-mercaptoethanol) was assayed against phosphorylase b peptide ([…]) (SEQ ID NO: 14) in a final volume of 25.5 μl containing 50 mM Tris pH 8.6, 50 mM Na-b-glycerophosphate, 0.04 mM CaCl2, phosphorylase b peptide (0.196 mM), 10 mM magnesium acetate, 0.02 mM [33P-g-ATP] (500-1000 cpm/pmole) then incubated for 15 min at room temperature. Assays were stopped by addition of 5 μl of 0.5 M (3%) orthophosphoric acid and then harvested onto P81 Unifilter plates with a wash buffer of 50 mM orthophosphoric acid.

Where [6] appears, read: 10 micromolar compound, read-out: mean activity remaining (as a percentage of the original activity), BRSK 2.
[7] abbreviates: 10 micromolar compound, read-out: mean activity remaining (as a percentage of the original activity), CDK 2 - Cyelin A.
Setting [8] is: 10 micromolar compound, read-out: mean activity remaining (as a percentage of the original activity), PIM3.
Where [9] appears, read: 10 micromolar compound, read-out: mean activity remaining (as a percentage of the original activity), SRPK1.

Like-named read-outs stand apart in the source and are kept apart here.

SRPK1, sequence (Q96SB4 whole entry, species assumed): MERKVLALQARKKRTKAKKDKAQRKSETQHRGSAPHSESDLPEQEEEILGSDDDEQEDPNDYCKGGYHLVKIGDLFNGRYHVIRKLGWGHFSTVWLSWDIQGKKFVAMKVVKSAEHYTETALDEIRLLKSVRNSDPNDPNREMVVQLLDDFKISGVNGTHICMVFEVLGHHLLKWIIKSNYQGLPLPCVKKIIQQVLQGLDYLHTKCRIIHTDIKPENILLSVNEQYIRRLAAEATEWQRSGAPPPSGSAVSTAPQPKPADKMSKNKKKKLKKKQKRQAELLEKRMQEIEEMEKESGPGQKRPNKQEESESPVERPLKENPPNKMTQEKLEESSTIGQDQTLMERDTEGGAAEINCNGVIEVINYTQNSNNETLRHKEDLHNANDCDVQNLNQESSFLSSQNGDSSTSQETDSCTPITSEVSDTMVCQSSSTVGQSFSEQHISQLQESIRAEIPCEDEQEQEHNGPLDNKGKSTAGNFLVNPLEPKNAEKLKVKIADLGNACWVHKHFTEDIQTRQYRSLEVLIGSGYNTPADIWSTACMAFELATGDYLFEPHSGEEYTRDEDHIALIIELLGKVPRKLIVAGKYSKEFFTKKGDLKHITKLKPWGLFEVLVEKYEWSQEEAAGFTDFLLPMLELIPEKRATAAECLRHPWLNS

Regarding `CC(C)c1cnn2c(NCc3ccccc3F)cc(NCCCCCN)nc12` [ICEC-0232], in assay [1] (10 micromolar compound), the “mean activity remaining (as a percentage of the original activity), BRSK 2” value is 81%. Moreover, in assay [2] (10 micromolar compound), the “mean activity remaining (as a percentage of the original activity), CDK 2 - Cyelin A” value was 9%. The “mean activity remaining (as a percentage of the original activity), PIM3” value in assay [3] (10 micromolar compound) was 76%. Further, the “mean activity remaining (as a percentage of the original activity), SRPK1” value in assay [4] (10 micromolar compound) is given as 38%. Further, the “mean activity remaining (as a percentage of the original activity), PHK” value in assay [5] is reported as 10%.

The term remaining activity denotes the signal under treatment as a percentage of the control signal. Turning to `CC[C@H](CO)Nc1cc(NCc2ccccc2)n2ncc(C(C)C)c2n1` [ICEC0067], the remaining activity at 10 µM in assay [1] (setting [6]) came to 76%; in assay [2] (setting [7]) it was 5%; in assay [3] (setting [8]), 96%; in assay [4] (setting [9]), 50%. Besides, in assay [5], the “mean activity remaining (as a percentage of the original activity), PHK” value worked out at 68%.

Broadly, the IC50 is the concentration that gives 50% inhibition. Higher therefore signals lower potency. In the case of `CC(C)c1cnn2c(NCc3ccccc3)cc(NCCCCCCCN)nc12` [BS-181], the remaining activity at 10 µM came out at 98% in assay [1] (BRSK2, 10 μM, read-out: Mean Remaining Enzyme Activity (%)); 9% in assay [2] (CDK2-Cyclin A, 10 μM, read-out: Mean Remaining Enzyme Activity (%)); 78% in assay [3] (PIM3, 10 μM, read-out: Mean Remaining Enzyme Activity (%)); 44% in assay [4] (SRPK1, 10 μM, read-out: Mean Remaining Enzyme Activity (%)). Besides, the concentration for half-maximal inhibition (IC50) in assay [2] (kinase screen) came to 750 nM. Besides, the “Mean Remaining Enzyme Activity (%)” value in assay [5] (PHK, 10 μM) is 49%.

`C=C[C@H](CO)Nc1cc(NCc2ccccc2)n2ncc(C(C)C)c2n1` [ICEC0065]: the remaining activity at 10 µM in assay [1] (setting [6]) is 76%; in assay [2] (setting [7]), 3%; in assay [3] (setting [8]), 100%; in assay [4] (setting [9]), 84%. Besides, the “mean activity remaining (as a percentage of the original activity), PHK” value in assay [5] was determined as 68%.

Take `CC(C)c1cnn2c(NCc3ccccc3)cc(N[C@@H](CO)[C@H](O)CO)nc12` [ICEC0318, (3S)-3-(7-(Benzylamino)-3-isopropylpyrazolo[1,5-a]pyrimidin-5-ylamino)butane-1,2,4-triol]: the remaining activity at 10 µM in assay [1] (setting [6]) stood at 108%; in assay [3] (setting [8]) it was 101%; in assay [4] (setting [9]) it was 62%. Besides, the “mean activity remaining (as a percentage of the original activity), PHK” value in assay [5] is 62%.
